Entries after “also recorded” stand apart in the source; their conditions may differ.

This is an account of results in publication PMC5444695, “CM363, a novel naphthoquinone derivative which acts as multikinase modulator and overcomes imatinib resistance in chronic myelogenous leukemia” (Oncotarget, 2016).

The subject of one series is HEK cells. Nature of the series: MTT cell viability assay, HEK cells. In kind it is cell-based. Conditions: Homo sapiens, HEK293, 48 h, read-out: IC50 (μM) Mean ± SD. On the procedure: (§1) All cell lines were purchased from the American Type Culture Collection (ATCC). The cell lines were growth at 37°C under 5% CO2 under humidified atmosphere. The cell lines K562 (derived from patients during the blast crisis phase of CML and IM sensitive), K562-R (IM resistance human CML), KmycBT15I (KBTI; IM resistant human CML, expressing the Bcr-Abl […] mutant), HEL (human erythroleukemia), HL60 (human acute myeloid leukemia), MOLM-13 (human acute myeloid leukemia), MV4.11 (human acute monocytic leukemia), HCT-15 (human colorectal adenocarcinoma), PC3 (human prostate cancer), MCF7 (human breast cancer), NCTC3749 (mouse lymphoma) as well as the MRC.5 cells (non-malignant human lung fibroblasts) were maintained in RPMI-1640 medium. The cell lines L1210 (mouse lymphocytic leukemia cells), Raw (mouse macrophage), HeLa (human epithelial cervix cancer), U-2 OS (human osteosarcoma), MG63 (human osteosarcoma) and T47D (human breast cancer adenocarcinoma) were maintained in DMEM. HEK293 cells stably expressing the GH receptor (HEKGHR) were maintained in DMEM-F12 medium. […]
(§2) Cells were seeded in 96-well plates (BD Falcon, France) at exponential growth density (5000–20000 cells/well) and treated with vehicle (0.05% DMSO) or compound (0.01 to 10 μM) for 48–72 h. […] Optical density was measured at 595 nm with the iMark Microplate Reader (BioRad, CA, USA).
Background: Tetrazolium assays rely on reduction of a dye to a coloured formazan, in cell work by metabolically active cells.

Another series concerns Raw cells. The series can be described thus: MTT cell viability assay, Raw cells. In kind it is cell-based. Conditions: Mus musculus, 48 h, read-out: IC50 (μM) Mean ± SD. The procedure: as §1, §2
For series [1], the system named is K562 cells. The series can be described thus: Live-cell imaging (IncuCyte HD) of proliferation and cytotoxicity, K562 cells. The class given is cell-based, human. Conditions: Homo sapiens. On the procedure:
(§3) Kinetic measurements of cell proliferation and cytotoxicity were carried out by using the IncuCyte^TM HD real time imaging system (Essen BioScience, Hertfordshire, United Kingdom). After seeding in a polylysine-coated 96 well-plates, K562 cells were treated with different concentrations of compound. This IncuCyte™ microscope permits the acquisition of automated phase contrast images. Individual images are processed by an imbedded contrast-based confluence algorithm, which compute monolayer confluence for each image and at each time point. Multiple images are collected per well and averaged to provide a representative statistical measure of confluence.

Test in series [2]: as above
In kind it is cell-based, human. Conditions: human, K562 cells; K562, continuous exposure over 4-day period, area under curve; read-out: EC50AUC, cytotoxic effect. The procedure: as §3

A further series deals with HeLa cells. The series can be described thus: MTT cell viability assay, HeLa cells. In kind it is cell-based. Conditions: Homo sapiens, 48 h, read-out: IC50 (μM) Mean ± SD. On the procedure:
as §1, §2

A further series concerns Stat3 response element. Nature of the series: Stat3 luciferase reporter gene assay in HeLa/Stat3-luc cells. In kind it is cell-based. Conditions: 1 h pretreatment then IL6 7 h. In general terms: In a reporter assay the amount or activity of a reporter protein is the signal.
The subject of the next series is HL60 cells. Nature of the series: MTT cell viability assay, HL60 cells. In kind it is cell-based. Conditions: Homo sapiens, HL-60, HL60, 48 h, read-out: IC50 (μM) Mean ± SD. On the procedure:
as §1, §2

The test system of another series is SKBR3 cells. The series can be described thus: MTT cell viability assay, SKBR3 cells. The class given is cell-based. Conditions: Homo sapiens, SK-BR-3, SKBR3, 48 h, read-out: IC50 (μM) Mean ± SD.
The test system of series [3] is K562 cells. Nature of the series: MTT cell viability assay, K562 cells. The class given is cell-based, human. Conditions: for IC50: Homo sapiens. On the procedure: All cell lines were purchased from the American Type Culture Collection (ATCC). The cell lines were growth at 37°C under 5% CO2 under humidified atmosphere. The cell lines K562 (derived from patients during the blast crisis phase of CML and IM sensitive), K562-R (IM resistance human CML), KmycBT15I (KBTI; IM resistant human CML, expressing the Bcr-Abl […] mutant), HEL (human erythroleukemia), HL60 (human acute myeloid leukemia), MOLM-13 (human acute myeloid leukemia), MV4.11 (human acute monocytic leukemia), HCT-15 (human colorectal adenocarcinoma), PC3 (human prostate cancer), MCF7 (human breast cancer), NCTC3749 (mouse lymphoma) as well as the MRC.5 cells (non-malignant human lung fibroblasts) were maintained in RPMI-1640 medium. The cell lines L1210 (mouse lymphocytic leukemia cells), Raw (mouse macrophage), HeLa (human epithelial cervix cancer), U-2 OS (human osteosarcoma), MG63 (human osteosarcoma) and T47D (human breast cancer adenocarcinoma) were maintained in DMEM. HEK293 cells stably expressing the GH receptor (HEKGHR) were maintained in DMEM-F12 medium. The human breast cancer cell line SKBR3 was maintained in McCoy’s 5A medium. Cell culture medium was supplemented with 10% FBS, L-glutamine (2 mM) and PEST. In addition, the cell culture medium for T47D was supplemented with 1 mM NaPyr and 10 mM HEPES. Human peripheral blood mononuclear cells (PBMC) were isolated from heparin-anticoagulated blood of healthy volunteers by centrifugation with Ficoll-Paque Plus (Amersham Biosciences).
Cells were seeded in 96-well plates (BD Falcon, France) at exponential growth density (5000–20000 cells/well) and treated with vehicle (0.05% DMSO) or compound (0.01 to 10 μM) for 48–72 h. The mitochondrial metabolization of the tetrazolium salt 3-(4,5-methyltiazol-2yl-)-2,5diphenyl-tetrazolium bromide] (MTT) (Applichen, Germany) was used as indicator of cell viability. Optical density was measured at 595 nm with the iMark Microplate Reader (BioRad, CA, USA).

The test system of another series is K562 tumor xenografts. Nature of the series: K562 tumor xenografts in NOD-SCID mice. Conditions: CM363 10 mg/kg i.p., 25 days, P = 0.004 day 4, P = 0.007 day 25. The class given is in vivo. The procedure: Six weeks old female athymic mice (NOD-SCID), were purchased from Charles River River (Barcelona, Spain), and were housed in a specifically designed pathogen-free isolation facility as reported previously. […] The vehicle and CM363 treatments were administered via intraperitoneal injection (i.p.) every day except Saturday and Sunday. […] The study was conducted over a 25 days period. Caliper measurements of the tumor diameters were performed twice per week, and the tumor volume was estimated as the volume of an ellipse using the following formula: V = 4/3n × (a/2) × (b/2)^2, where a and b correspond to the longest and shortest diameter, respectively. Mice were sacrificed when their tumor diameters reached 2 cm, or when they became moribund. Differences in tumor volumes between control and treated group were evaluated using the Mann-Whitney test.

The next series concerns HCT-15 cells. Nature of the series: MTT cell viability assay, HCT-15 cells. The class given is cell-based. Conditions: Homo sapiens, HCT-15, 48 h, read-out: IC50 (μM) Mean ± SD. On the procedure: as §1, §2
In the next series the test system is L1210 cells. Nature of the series: MTT cell viability assay, L1210 cells. In kind it is cell-based. Conditions: Mus musculus, L1210, 48 h, read-out: IC50 (μM) Mean ± SD. On the procedure: as §1, §2
A further series relates to HEL cells. Nature of the series: MTT cell viability assay, HEL cells. In kind it is cell-based. Conditions: Homo sapiens, 48 h, read-out: IC50 (μM) Mean ± SD. The procedure:
as §1, §2

Turning to `N#Cc1ccc(C2C3=C(CCCC3=O)OC3=C2C(=O)c2ccccc2C3=O)cc1` (stereo not shown) [CM363, 4-(1,6,11-trioxo-2,3,4,6,11,12-hexahydro-1H-benzo[b]xanthen-12-yl)benzonitrile], the IC50 in the series with HEK cells is 0.6 ± 0.2 µM; in the series with Raw cells it was 0.1 ± 0.2 µM; in the series with K562 cells [1] (96 h, IM sensitive K562, continuous exposure over 4-day period, area under curve, read-out: IC50AUC, cytostatic effect on cell growth), 0.6 ± 0.3 µM; with K562 cells [1] (K562, 2 h transient exposure, then additional 72 h without compound, read-out: IC50AUC, cytostatic effect after transient exposure), 1.9 ± 0.5 µM; in the series with HeLa cells it was 4.8 ± 0.4 µM; in the series with HL60 cells it was 1.3 ± 0.6 µM. Further, the IC50 with SKBR3 cells is 2.6 ± 0.8 µM; in the series on K562 cells [3] (IM sensitive K562, 72 h, MTT (Fig 10D), read-out: IC50, cell viability) it was roughly 0.6 µM; in the series with K562 cells [3] (K562, 48 h, MTT, read-out: IC50 (μM) Mean ± SD), 0.7 ± 0.5 µM; in the series on HCT-15 cells, 3.3 µM; in the series on L1210 cells, 3.4 ± 0.4 µM; in the series on HEL cells, 1.3 ± 0.3 µM. Moreover, the EC50 at 4 days in series [2] came out at 1.1 ± 0.4 µM. Moreover, the “Stat3-dependent reporter gene (luciferase) activity” value in the series with Stat3 response element is “inhibit”. Further, the “lowest concentration at which inhibition was detected” value in the series with K562 cells [3] (IM sensitive K562, 72 h, MTT (Fig 10D)) was found to be 0.3 µM. For the same compound, the “tumor growth (tumor volume) versus control group” value with K562 tumor xenografts was “suppressed the growth; also recorded: pronounced, and statistically significant reduction”.
